Measurements taken from patent publication US20070037253A1, “Methods and compositions for treatment of arthritis and cancer” (priority 2003, published 2007).
Several values for one entry are separate records, joined by “and”; a condition that tells them apart may be missing. Equal entries are not always repeated. Where a SMILES comes first, the peptide text is derived from it.

Experiments:
Assay type in all cases: biochemical
MMP-2 = biological target: T1, MMP-2 (Homo sapiens, UniProt P08253); experiment: Gelatin zymography of human synovial fluid pre-incubated with inhibitors; conditions: 5 or 10 μM, pre-incubated 37° C. 1 h
T1 construct: from tissue; host or cells: human synovial fluid
T1 sequence (P08253 110-660): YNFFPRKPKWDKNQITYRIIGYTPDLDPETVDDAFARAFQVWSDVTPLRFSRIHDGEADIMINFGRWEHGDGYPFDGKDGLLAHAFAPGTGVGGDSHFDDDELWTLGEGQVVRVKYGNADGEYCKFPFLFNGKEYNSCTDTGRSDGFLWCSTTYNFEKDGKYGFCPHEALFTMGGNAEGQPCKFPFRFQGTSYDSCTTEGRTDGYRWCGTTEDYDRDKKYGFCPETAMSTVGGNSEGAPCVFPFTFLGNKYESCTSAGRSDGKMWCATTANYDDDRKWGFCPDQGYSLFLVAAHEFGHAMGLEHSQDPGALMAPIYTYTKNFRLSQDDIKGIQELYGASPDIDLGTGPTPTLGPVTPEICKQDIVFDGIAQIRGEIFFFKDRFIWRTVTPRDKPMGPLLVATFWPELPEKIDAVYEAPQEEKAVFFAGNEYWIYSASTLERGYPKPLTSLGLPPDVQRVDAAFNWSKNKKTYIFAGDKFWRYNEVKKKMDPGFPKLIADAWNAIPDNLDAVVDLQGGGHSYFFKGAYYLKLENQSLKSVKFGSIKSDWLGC
Procedure: (A) Samples containing human synovial fluid (5 μL) and 5 or 10 μM of peptides were pre-incubated at 37° C. for 1 h in Tris-HCl buffer prior to electrophoresis on 10% SDS-PAGE gel containing gelatin (0.1%). […] (B) The mean density (OD/mm2)±SD (n=3), representing MMP-2 activity, obtained by scanning the zymograms using the GS-710 calibrated imaging densitometer (Bio Rad, USA).
Gelatin zymography: human synovial fluid, purified human recombinant MMP-2 and -9 or APMA-activated concentrated culture supernatant samples (10 μL) was mixed (1:1) with Laemmli sample buffer, loaded on 4% acrylamide stacking gel and electrophoresed (120 V) at 4° C. on a 10% acrylamide-resolving minigel containing 0.1% gelatin. After electrophoresis for 1 h, the gels were soaked in 2.5% Triton X-100 on a shaker for 1 h, changing the solution after 30 min, to eliminate SDS. After overnight incubation in zymogen activation buffer [50 mM Tris-HCl, pH 7.5, containing 10 mM CaCl2 and 5 mM ZnCl2] at 37° C., the gels were rinsed in distilled water, and stained for 3 hr with […], after which clear bands of digested gelatin were clearly visible. The gels were briefly rinsed in distilled water and scanned by the Bio-Rad GS-710 Calibrated Imaging Densitometer.

collagenase I (MMP-1) = experiment: Collagenase activity assay, collagen thin film (collagen type II substrate); conditions: for Collagenase (% Inhibition): collagen thin film, collagen type II, peptide concentration not given
Procedure: Collagenase activity was assayed by collagen thin film method using collagen type II as substrate. IC50 values were graphically determined from the inhibition curves, constructed on the basis of the in vitro results of collagenase assays. Results are the mean±SD of 3 separate experiments done in triplicates. (•), P-NT.II; (□), PIP [59-67] dimer; (Δ), PIP [59-67} monomer; (∇), LY 315920.
Collagenase activity assay: Using collagen thin film as the substrate, a quantitative method was established to measure the enzymatic activity of the MMPs (principally collagenase). Collagen type II (Sigma) solution (4 μL, 3 mg/mL in 0.012 N HCl) was added to each well of 96-well plates and precipitated by slowly increasing the pH with 4 μL of H2O and 8 μL of 0.012 N NaOH. The plate was dried at 23° C. for 24 hr, washed with H2O, and dried again at 23° C., resulting in a thin film containing 12 μg of collagen that was tightly bound to the bottom of the wells. Enzymatic reactions of the collagenase I (with and without peptide inhibitors) against the collagen films were carried out in quadruplicate at 24° C. for 16 h. The digested portion of the film was washed away, while the undigested portion was fixed for 3 h with 0.1% Coomassie brilliant blue R in 10% acetic acid and 45% methanol, and the wells washed and dried.

[1] = biological target: T2, purified human synovial sPLA2 (human Type IIA sPLA2) (Homo sapiens, UniProt P14555); experiment: sPLA2 inhibition, 3H-arachidonate-labelled E. coli membrane assay; conditions: fixed peptide concentration (5 μM); 3H-labelled E. coli membrane assay; read-out: % Inhibition (mean ± SD)
T2 construct: purchased Cayman Chemicals, USA
T2 sequence (P14555 21-144): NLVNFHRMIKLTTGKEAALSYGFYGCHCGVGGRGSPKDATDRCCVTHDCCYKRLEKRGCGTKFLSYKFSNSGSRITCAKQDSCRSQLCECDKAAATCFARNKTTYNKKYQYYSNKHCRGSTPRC
Procedure: In brief, [^3H] arachidonate-labeled E. coli membranes (0.005 mCi/mL; 5.8 μCi/μmol, NEN) were used as substrate, and 100 mM Tris-HCl—25 mM CaCl2, pH 7.5 solution as an assay buffer. The reaction mixture contained 20 μL of substrate, 0.85 pmole of purified human synovial sPLA2 (human Type IIA sPLA2, Cayman Chemicals, USA), and an increasing concentrations of the family of synthetic peptides derived from the sequence of PIP. The final volume of the reaction mixture was adjusted to 250 μL with an assay buffer. After incubation of the mixture (37° C., 1 h) and termination of the reaction with 750 μL of chilled PBS containing 1% BSA, microfuge tubes containing the samples were centrifuged (10,000 g at 4° C. for 15 min), and 500 μL aliquots of the supernatant taken to measure the amount of [^3H]-labeled arachidonate released from the E. coli membrane using liquid scintillation counting (Multipurpose Scintillation Counter LS 6500; Beckman, USA). As controls, sPLA2 was pre-incubated with the assay buffer alone. All samples, including controls, were performed in triplicate and plotted as the percentage inhibition relative to negative controls.
A sigmoid dose response curve was generated to allow calculation of the IC50 values. All samples were performed in triplicate. Results were analyzed by nonlinear regression with GraphPad Prism (version 2.01) and expressed as the percentage of inhibition relative to control values.

CC[C@H](C)[C@H](NC(=O)[C@H](Cc1ccc(O)cc1)NC(=O)[C@@H](NC(=O)CNC(=O)[C@H](CC(=O)O)NC(=O)[C@H](Cc1c[nH]c2ccccc12)NC(=O)[C@@H](NC(=O)[C@H](Cc1c[nH]cn1)NC(=O)[C@@H](NC(=O)[C@H](CC(=O)O)NC(=O)[C@@H](NC(=O)[C@H](CCCNC(=N)N)NC(=O)CNC(=O)[C@@H](N)CC(C)C)C(C)C)[C@@H](C)CC)C(C)C)C(C)C)C(=O)N[C@@H](CCCNC(=N)N)C(=O)NCC(=O)N[C@@H](CCCNC(=N)N)C(=O)O [P-NT.II] (H-LGRVDIHVWDGVYIRGR-OH; N-terminus and C-terminus assumed)
MMP-2 gelatinase activity (zymogram densitometry) vs control (MMP-2): did not show any significant difference from the control
IC50 (collagenase I (MMP-1); collagen thin film method, FIG. 2, read-out: IC50 (mean±SD), collagenase I (MMP-1)): 8.43 ± 1.17 µM
Collagenase (% Inhibition) (collagenase I (MMP-1)): 64.2 ± 5.6% and 64.2 ± 5.5%

CC[C@H](C)[C@H](NC(=O)[C@H](CC(=O)O)NC(=O)[C@@H](N)C(C)C)C(=O)N[C@@H](Cc1c[nH]cn1)C(=O)N[C@H](C(=O)N[C@@H](Cc1c[nH]c2ccccc12)C(=O)N[C@@H](CC(=O)O)C(=O)NCC(=O)N[C@H](C(=O)O)C(C)C)C(C)C [PIP [59-67] monomer] (H-VDIHVWDGV-OH; N-terminus and C-terminus assumed)
MMP-2 gelatinase activity (zymogram densitometry) vs control (MMP-2): did not show any significant difference from the control
inhibition at 5 µM [1]: 56.4 ± 3.21%
Collagenase (% Inhibition) (collagenase I (MMP-1)): 34.2 ± 4.7%
